Reference: ChEMBL document CHEMBL1240317, “Probing cell-division phenotype space and Polo-like kinase function using small molecules” (Nat Chem Biol, 2006)
The source made the active and inactive calls.

What was measured:
BSC-1 [1] = assay: Induction of deffects in mitotic spindle in african green monkey BSC1 cells at 20 uM after 4 hrs by immunocytochemistry; type: functional, cell-based; settings: Chlorocebus aethiops
BSC-1 [2] = assay: Antimitotic activity against african green monkey BSC1 cells assessed as induction of chromosome alignment deffects at 20 uM by immunofluorescence microscopy; type: functional, cell-based; settings: Chlorocebus aethiops
[3] = molecular target: Serine/threonine-protein kinase PLK1 (Homo sapiens, UniProt P53350); assay: Inhibition of recombinant polo-like kinase 1 activity by SDS-PAGE
U2OS [4] = assay: Induction of monopolar spindles and reduction in gamma-tubulin at the centrosomes in human U2OS cells at 25 uM after 4 hrs by immunofluorescence; type: functional, cell-based
U2OS [5] = assay: Induction of monopolar spindles and reduction in gamma-tubulin at the centrosomes in human U2OS cells at 50 uM after 4 hrs by immunofluorescence; type: functional, cell-based
PtK2 [6] = assay: Induction of monopolar mitotic spindles in rat kangaroo PtK2 cells expressing GFP-labeled alpha-tubulin after 4 hrs; type: functional, cell-based; settings: Potorous tridactylus
PtK2 [7] = assay: Induction of monopolar mitotic spindles in rat kangaroo PtK2 cells expressing GFP-labeled alpha-tubulin at 20 uM after 4 hrs; type: functional, cell-based; settings: Potorous tridactylus
PtK2 [8] = assay: Induction of mitotic index in rat kangaroo PtK2 cells expressing GFP-labeled alpha-tubulin after 4 hrs; type: functional, cell-based; settings: Potorous tridactylus
PtK2 [9] = assay: Inhibition of polo-like kinase 1 activity in rat kangaroo PtK2 cells expressing GFP-labeled alpha-tubulin assessed as phosphorylation of Cdc25c at centrosomes after 1 hr by quantitative immunofluorescence; type: cell-based; settings: Potorous tridactylus
PtK2 [10] = assay: Inhibition of polo-like kinase 1 activity in rat kangaroo PtK2 cells expressing GFP-labeled alpha-tubulin assessed as phosphorylation of Cdc25c at 20 uM after 1 hr by quantitative immunofluorescence; type: cell-based; settings: Potorous tridactylus
PtK2 [11] = assay: Inhibition of Aurora kinase activity in rat kangaroo PtK2 cells assessed as histone H3 phosphorylation at 25 uM after 1 hr by quantitative fluorescence; type: cell-based; settings: Potorous tridactylus
PtK2 [12] = assay: Antimitotic activity in rat kangaroo PtK2 cells expressing GFP-labeled alpha-tubulin in presence of monastrol assessed as cells remained in mitosis at 20 uM after 90 mins by phase-contrast microscopy; type: functional, cell-based; settings: Potorous tridactylus
PtK2 [13] = assay: Inhibition of polo-like kinase 1 activity in rat kangaroo PtK2 cells expressing GFP-labeled alpha-tubulin assessed as interkinetochore distance at 20 uM after 45 mins; type: cell-based; settings: Potorous tridactylus
BSC-1 [14] = assay: Antimitotic activity against african green monkey BSC1 cells assessed as induction of bipolar spindles with decrease in pole to pole distance at 20 uM by immunofluorescence microscopy; type: functional, cell-based; settings: Chlorocebus aethiops
U2OS [15] = assay: Disruption of interphase microtubule organization in human U2OS cells at 250 uM after 4 hrs by immunofluorescence; type: functional, cell-based
U2OS [16] = assay: Reduction in gamma-tubulin level in centrosomes in human U2OS cells at 250 uM after 4 hrs by immunofluorescence; type: functional, cell-based
BSC-1 [17] = assay: Antimitotic activity against african green monkey BSC1 cells assessed as induction of monopolar spindles and two separated astral microtubule array at 20 uM by immunofluorescence microscopy; type: functional, cell-based; settings: Chlorocebus aethiops
BSC-1 [18] = assay: Antimitotic activity against african green monkey BSC1 cells assessed as induction of normal spindles at 2.5 uM by immunofluorescence microscopy; type: functional, cell-based; settings: Chlorocebus aethiops
BSC-1 [19] = assay: Antimitotic activity against african green monkey BSC1 cells assessed as induction of monopolar spindles by immunofluorescence microscopy; type: functional, cell-based; settings: Chlorocebus aethiops
BSC-1 [20] = assay: Induction of monopolar mitotic spindles in african green monkey BSC1 cells assessed as percentage of monopolar cells with two centrosomes at 20 uM after 4 hrs; type: functional, cell-based; settings: Chlorocebus aethiops
BSC-1 [21] = assay: Induction of monopolar mitotic spindles in african green monkey BSC1 cells assessed as kinesin-5 (Eg5) inhibition at 100 uM after 4 hrs; type: functional, cell-based; settings: Chlorocebus aethiops
BSC-1 [22] = assay: Induction of severe microtubule disruption in african green monkey BSC1 cells at 20 uM after 4 hrs by immunocytochemistry; type: functional, cell-based; settings: Chlorocebus aethiops
BSC-1 [23] = assay: Induction of reduced mitotic index in african green monkey BSC1 cells at 20 uM after 4 hrs by immunocytochemistry; type: functional, cell-based; settings: Chlorocebus aethiops
PtK2 [24] = assay: Inhibition of polo-like kinase 1 activity in rat kangaroo PtK2 cells expressing GFP-labeled alpha-tubulin assessed as interkinetochore distance at 33 uM after 45 mins; type: cell-based; settings: Potorous tridactylus
BSC-1 [25] = assay: Antimitotic activity against african green monkey BSC1 cells assessed as induction of monopolar spindles at 20 uM by immunofluorescence microscopy; type: functional, cell-based; settings: Chlorocebus aethiops
BSC-1 [26] = assay: Antimitotic activity against african green monkey BSC1 cells assessed as induction of sphere like organization at 2.5 uM by immunofluorescence microscopy; type: functional, cell-based; settings: Chlorocebus aethiops

Chain of Serine/threonine-protein kinase PLK1 (P53350 whole entry): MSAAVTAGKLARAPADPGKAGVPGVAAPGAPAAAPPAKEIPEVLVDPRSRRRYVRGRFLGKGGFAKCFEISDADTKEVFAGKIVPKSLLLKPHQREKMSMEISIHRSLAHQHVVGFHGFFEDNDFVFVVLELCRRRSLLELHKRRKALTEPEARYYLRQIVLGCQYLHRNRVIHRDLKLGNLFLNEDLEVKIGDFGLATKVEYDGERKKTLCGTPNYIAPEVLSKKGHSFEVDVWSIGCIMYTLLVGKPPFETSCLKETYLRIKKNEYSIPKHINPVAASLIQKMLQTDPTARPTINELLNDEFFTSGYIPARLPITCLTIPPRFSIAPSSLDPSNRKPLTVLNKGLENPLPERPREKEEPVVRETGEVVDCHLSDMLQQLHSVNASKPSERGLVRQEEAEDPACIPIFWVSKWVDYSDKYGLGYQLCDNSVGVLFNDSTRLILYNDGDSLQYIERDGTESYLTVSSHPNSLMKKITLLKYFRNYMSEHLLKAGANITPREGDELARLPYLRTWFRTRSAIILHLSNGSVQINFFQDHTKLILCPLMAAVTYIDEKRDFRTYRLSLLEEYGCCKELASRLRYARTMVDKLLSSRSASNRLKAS

For `O=C(c1ccccc1)c1ccccc1Nc1nc(Nc2ccc3c(c2)OCO3)ncc1[N+](=O)[O-]`, the Activity (BSC-1 [1]) was “Active” and the Activity (BSC-1 [2]) was “Active”.

For `c1csc(CNc2nccc(Nc3ccc4c(c3)OCO4)n2)c1`, the Activity (BSC-1 [1]) was “Active” and the Activity (BSC-1 [2]) was “Active”.

With `N#Cc1cc([N+](=O)[O-])c2sc(C(N)=O)[n+]([O-])c2c1` the IC50 [3] was 8 µM, the Activity (U2OS [4]) was “Active” and the Activity (U2OS [5]) was “Active”. For the same compound, the Activity (PtK2 [6]) was “Dose-dependent effect”, the Activity (PtK2 [7]) was “Active” and the Activity (PtK2 [8]) was “Dose-dependent effect”. The Activity (PtK2 [9]) was “Dose-dependent effect”, the inhibition (PtK2 [10]) was “Active” and the inhibition (PtK2 [11]) was 20%. For the same compound, the Activity (PtK2 [12]) was “Active” and the interkinetochore distance (PtK2 [13]) was 2.3 µm.

With `c1cc(Nc2ccc3c(c2)OCO3)nc(Nc2ccc3c(c2)CCC3)n1` the Activity (BSC-1 [1]) was “Active” and the Activity (BSC-1 [14]) was “Active”.

In the case of `COc1cc(OC)c(/C=C/S(=O)(=O)Cc2ccc(OC)c(NCC(=O)O)c2)c(OC)c1`, the Activity (U2OS [15]) is reported as “inactive” and the Activity (U2OS [16]) is reported as “inactive”.

With `c1cc(Nc2ccc3c(c2)CCC3)nc(Nc2ccc3ncsc3c2)n1` the Activity (BSC-1 [1]) was “Active”, the Activity (BSC-1 [17]) was “Active” and the Activity (BSC-1 [18]) was “Active”. The EC50 (BSC-1 [19]) was 30 µM, the Activity (BSC-1 [20]) was “Active” and the Activity (BSC-1 [21]) was “Active”.

With `CC(C)CC(CO)Nc1ncc([N+](=O)[O-])c(Nc2ccc3ncsc3c2)n1` (configuration not stated) the Activity (BSC-1 [22]) was “Active”, the Activity (BSC-1 [23]) was “Active” and the Activity (BSC-1 [1]) was “Active”.

In the case of `O=[N+]([O-])c1cnc(NC2CCCCCC2)nc1Nc1ccc(Cl)c(Cl)c1`, the Activity (BSC-1 [22]) is reported as “Active”, the Activity (BSC-1 [23]) is reported as “Active” and the Activity (BSC-1 [1]) is reported as “Active”.

`COC(=O)Nc1nc2cc(C(=O)c3cccs3)ccc2[nH]1` showed an interkinetochore distance (PtK2 [24]) of 1.4 µm.

For `CC(C)(Nc1ncc([N+](=O)[O-])c(Nc2ccc3ncsc3c2)n1)c1ccccc1`, the Activity (BSC-1 [22]) was “Active”, the Activity (BSC-1 [23]) was “Active” and the Activity (BSC-1 [1]) was “Active”.

In the case of `CN1CCN(c2ccc(Nc3ncc([N+](=O)[O-])c(Nc4ccccc4C(=O)c4ccccc4)n3)cc2)CC1`, the Activity (BSC-1 [1]) is reported as “Active”, the Activity (BSC-1 [25]) is reported as “Active” and the Activity (BSC-1 [26]) is reported as “Active”.

With `NC(=O)c1ccccc1Nc1nc(NCCCN2CCCC2=O)ncc1[N+](=O)[O-]` the Activity (BSC-1 [22]) was “Active”, the Activity (BSC-1 [23]) was “Active” and the Activity (BSC-1 [1]) was “Active”.

For `CC(=O)Nc1ccc(Nc2ccnc(Nc3ccncc3)n2)cc1`, the Activity (BSC-1 [22]) was “Active”, the Activity (BSC-1 [23]) was “Active” and the Activity (BSC-1 [1]) was “Active”.

With `CCCCNc1nc(Nc2ccc3[nH]ccc3c2)ncc1[N+](=O)[O-]` the Activity (BSC-1 [22]) was “Active”, the Activity (BSC-1 [23]) was “Active” and the Activity (BSC-1 [1]) was “Active”.
